The target of test [1] is T1, PDE5A1 (Homo sapiens, UniProt O76074).
T1 construct: made in house; host or cells: SF21 insect cells (baculovirus; virus made in SF9)
The test can be described thus: Inhibition of PDE5A1 activity, modified SPA (scintillation proximity assay) with recombinant enzyme. It counts as biochemical. As to conditions: for IC50: recombinant PDE5A1, 0.5 μM cGMP substrate, read-out: Inhibition of the PDE5 activity (IC50). From the text:
The PDE5A1 (GB no. AF043731) was cloned via PCR from Kidney cDNA. A 5′ fragment was amplified with OZ489 (5′-[…] -3′) and OZ 493 (5′-[…]-3′), a 3′ fragment was amplified with OZ 492 (5′-[…]-3′) and OZ 490 (5′-[…]-3′). Both fragments were cloned into pCR2.1-Topo. Primers OZ 493 and OZ 492 have a nucleotide substitution that doesn't affect the translated sequence, but introduces an EcoRI cutting site. The 2 fragments were cut out of the cloning vector with EcoRI and subcloned together in a single ligation reaction into pBP9, resulting in the construct PZ 287. […] For correct expression it was subcloned with Xmal/Sacl into pBacPak8.
The recombinant baculovirus was prepared by means of homologous recombination in SF9 insect cells. The expression plasmid was cotransfected with Bac-N-Blue (Invitrogen, Groningen, NL) or Baculo-Gold DNA (Pharmingen, Hamburg) using a standard protocol (Pharmingen, Hamburg). Wt virus-free recombinant virus supernatant was selected using plaque assay methods. After that, high-titre virus supernatant was prepared by amplifying 3 times. PDE was expressed in SF21 cells by infecting 2×10^6 cells/ml with an MOI (multiplicity of infection) between 1 and 10 in serum-free SF900 medium (Life Technologies, Paisley, UK). The cells were cultured at 28° C. for 48-72 hours, after which they were pelleted for 5-10 min at 1000 g and 4° C.
The SF21 insect cells were resuspended, at a concentration of approx. 10^7 cells/ml, in ice-cold (4° C.) homogenization buffer (20 mM Tris, pH 8.2, containing the following additions: 140 mM NaCl, 3.8 mM KCl, 1 mM EGTA, 1 mM MgCl2, 10 mM β-mercaptoethanol, 2 mM benzamidine, 0.4 mM Pefablock, 10 μM leupeptin, 10 μM pepstatin A, 5 μM trypsin inhibitor) and disrupted by ultrasonication. The homogenate was then centrifuged for 10 min at 1000× g and the supernatant was stored at −80° C. until subsequent use (see below). The protein content was determined by the Bradford method (BioRad, Munich) using BSA as the standard.
The test volume is 100 μl and contains 20 mM Tris buffer (pH 7.4), 0.1 mg of BSA (bovine serum albumin)/ml, 5 mM Mg^2+, 0.5 μM cGMP (including about 50,000 cpm of [3H]cGMP as a tracer), 1 μl of the respective substance dilution in DMSO and sufficient recombinant PDE (1000× g supernatant, see above) to ensure that 10-20% of the cGMP is converted under the said experimental conditions. […] After a preincubation of 5 min at 37° C., the reaction is started by adding the substrate (cGMP) and the assay is incubated for a further 15 min; after that, it is stopped by adding SPA beads (50 μl). In accordance with the manufacturer's instructions, the SPA beads had previously been resuspended in water, but were then diluted 1:3 (v/v) in water; the diluted solution also contains 3 mM IBMX to ensure a complete PDE activity stop. After the beads have been sedimented (>30 min), the MTP's are analyzed in commercially available luminescence detection devices. The corresponding IC50 values of the compounds for the inhibition of PDE activity are determined from the concentration-effect curves by means of non-linear regression.
(In general: Scintillation proximity formats need no separation of bound from free tracer.)

The test system of test [2] is isolated guinea pig Langendorff hearts. The test is described as follows: Perfused guinea-pig Langendorff heart (bolus injection into the perfusion flow). From the text:
(Modification: Bolus Injection into the Perfusion Flow)
Guinea-pigs (male, Dunkin Hartley, 400-500 g; Charles River, Sulzfeld, Germany) kept in Macrolon® cages (type IV) with free access to food (maintenance diet no. 3418, Provimi-Kliba, CH-4303 Kaiseraugst) and tap water, were killed by cervical dislocation and the thoracic cavity was opened. The heart was rapidly excised and perfused with Krebs-Henseleit solution at a constant pressure of 80 cm H2O ([…]) via retrograde cannulation of the aorta in a Langendorff apparatus. The Krebs-Henseleit solution was composed as follows (mM: NaCl 118, KCl 4.7, CaCl2 1.9, MgSO4 1.2, KH2PO4 1.2, NaHCO3 25.0, and glucose 5.0, at 37° C., gassed with 95% O2/5% CO2, v/v). Through an incision in the left atrium, a water-filled balloon catheter connected to a Statham P 23 Db pressure transducer was introduced into the left ventricle and preloaded to a pressure of […], mimicking the diastolic pressure.
Precoronary perfusate flow (CF, at an initial average passive flow of 11-13 ml/min) was measured using an electromagnetic flow meter. The change in left ventricular isovolumetric pressure amplitude (LVP) calculated by subtracting the diastolic from the systolic pressure, the rate of maximal left ventricular pressure rise (dP/dtmax), and the rate of the spontaneously beating heart (HR) were continuously recorded and monitored by a data acquisition system (Notocord, hem version 3.3; F-78290 Croissy).
Following at least 1 h of perfusion and stabilization of all cardiac parameters, the test drug is injected as 100 μl bolus within 2 s directly into the perfusion tube connected to the aortic inflow and increased threefold after the previous dose has produced its coronary dilatory response and the perfusion flow has returned to pre-drug values again. Thee drug-induced change in cardiac parameters is expressed as percentage of the initial pre-drug values.

Structures are written as SMILES.

The IC50 is the concentration needed to halve the response being measured. As for `CC(=O)Oc1ccccc1C(=O)O` [Aspirin, acetylsalicylic acid], in test [1], the “PDE5 inhibition in vitro (result in words)” value (from here on “PDE5 inhibition in vitro”) was “show no effects” and the IC50 is more than 100 µM.

With `Cc1ccc(-c2cc(C(F)(F)F)nn2-c2ccc(S(N)(=O)=O)cc2)cc1` [Celecoxib], in test [2], the heart rate entry is “no effect” and the left ventricular pressure result is given as “no effect”.

On to `O=C(O)Cc1ccccc1Nc1c(Cl)cccc1Cl` [Diclofenac], for which, in test [1], the “PDE5 inhibition in vitro” value was “show no effects” and the 50% inhibitory concentration (IC50) was more than 100 µM. Also, in test [2], the coronary heart flow result is on record as “substantially lack the ability to increase coronary heart flow”.

Turning to `Cc1ccc(-c2ncc(Cl)cc2-c2ccc(S(C)(=O)=O)cc2)cn1` [Etorecoxib], in test [1], the “PDE5 inhibition in vitro” value is given as “show no effects” and the half-maximal inhibitory concentration (IC50) is more than 100 µM. Moreover, the coronary heart flow result in test [2] is given as “substantially lack the ability to increase coronary heart flow”.

In the case of `CS(=O)(=O)Nc1cc2c(cc1Sc1ccc(F)cc1F)C(=O)CC2` [L-745337], the “PDE5 inhibition in vitro” value in test [1] is on record as “possess PDE5 activity in the μM range”.

`Cc1ccc(Nc2c(F)cccc2Cl)c(CC(=O)O)c1` [Lumiracoxib]: in test [1], the “PDE5 inhibition in vitro” value is listed as “show no effects” and the 50% inhibitory concentration (IC50) is more than 100 µM. Moreover, the coronary heart flow entry in test [2] is reported as “substantially lack the ability to increase coronary heart flow”.

As to `CCC(=O)NS(=O)(=O)c1ccc(-c2c(-c3ccccc3)noc2C)cc1` [Parecoxib], in test [1], the “PDE5 inhibition in vitro” value is recorded as “show no effects” and the IC50 was more than 100 µM. For the same molecule, in test [2], the coronary heart flow entry was “substantially lack the ability to increase coronary heart flow”.

Regarding `CS(=O)(=O)c1ccc(C2=C(c3ccccc3)C(=O)OC2)cc1` [Rofecoxib], in test [1], the “PDE5 inhibition in vitro” value is reported as “show no effects” and the IC50 was more than 100 µM. Also, the coronary heart flow entry in test [2] is listed as “substantially lack the ability to increase coronary heart flow”.

For `Cc1onc(-c2ccccc2)c1-c1ccc(S(N)(=O)=O)cc1` [Valdecoxib], in test [1], the “PDE5 inhibition in vitro” value is reported as “show no effects” and the IC50 was more than 100 µM. Moreover, the coronary heart flow entry in test [2] is recorded as “substantially lack the ability to increase coronary heart flow”.

On to `CS(=O)(=O)Nc1cc2c(cc1Oc1ccc(F)cc1F)C(=O)CC2` [flosulide], for which the “PDE5 inhibition in vitro” value in test [1] was “possess PDE5 activity in the μM range”.

For `CS(=O)(=O)Nc1ccc([N+](=O)[O-])cc1Oc1ccccc1` [nimesulide], in test [1], the “PDE5 inhibition in vitro” value is “possess PDE5 activity in the μM range”.
